Experimental data from ChEMBL document CHEMBL1201862, “PubChem BioAssay data set” (2004).
The source made the active and inactive calls.

Key:
[1] = target: Potassium voltage-gated channel subfamily KQT member 2 (Rattus norvegicus, UniProt O88943); assay: KCNQ2 potassium channel inhibitors, dose response, cell-based, automated electrophysiology, set II, rat KCNQ2 (AID 588637); type: functional
[2] = target: T1, Endoribonuclease toxin MazF (Escherichia coli K-12, UniProt P0AE70); assay: MazF toxin RNase activators, dose response, biochemical, fluorescence, single-stranded RNA substrate, uHTS hits (AID 588481); type: functional
T1 sequence (P0AE70 whole entry): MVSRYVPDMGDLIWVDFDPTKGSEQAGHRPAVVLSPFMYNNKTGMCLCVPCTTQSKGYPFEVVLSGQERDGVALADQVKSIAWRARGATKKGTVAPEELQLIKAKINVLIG

[3] = target: T1, Endoribonuclease toxin MazF; assay: fluorescent RNA oligo signal without MazF, dose response, counter-screen for MazEF activator project, biochemical, fluorescence, single-stranded RNase substrate (AID 588502); type: functional
[4] = target: Tyrosine-protein phosphatase non-receptor type 11 (Homo sapiens, UniProt Q06124); assay: SHP2 phosphatase inhibition, dose response, selectivity assay for STEP inhibitor project, biochemical (AID 602367); type: functional; details: read-out: IC50_Mean
Tyrosine-protein phosphatase non-receptor type 11, sequence (Q06124 whole entry): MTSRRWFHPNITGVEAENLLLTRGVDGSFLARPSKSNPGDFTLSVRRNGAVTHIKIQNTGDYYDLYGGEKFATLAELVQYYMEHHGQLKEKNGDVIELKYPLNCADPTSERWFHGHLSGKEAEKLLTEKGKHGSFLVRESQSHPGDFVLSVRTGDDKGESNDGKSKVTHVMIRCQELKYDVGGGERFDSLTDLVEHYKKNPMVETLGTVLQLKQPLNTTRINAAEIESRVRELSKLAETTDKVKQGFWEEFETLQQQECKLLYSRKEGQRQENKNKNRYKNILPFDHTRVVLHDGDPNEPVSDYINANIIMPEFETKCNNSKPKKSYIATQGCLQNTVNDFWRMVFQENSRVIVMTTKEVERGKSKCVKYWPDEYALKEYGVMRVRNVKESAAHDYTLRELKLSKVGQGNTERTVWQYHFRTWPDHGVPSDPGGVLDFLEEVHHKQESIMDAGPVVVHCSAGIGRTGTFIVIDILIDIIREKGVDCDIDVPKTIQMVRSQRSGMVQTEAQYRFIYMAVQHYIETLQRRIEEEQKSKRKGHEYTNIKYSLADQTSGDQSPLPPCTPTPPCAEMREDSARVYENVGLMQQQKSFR

[5] = target: Tyrosine-protein phosphatase non-receptor type 5 (Homo sapiens, UniProt P54829); assay: STEP phosphatase inhibitors, confirmation, biochemical, fluorescence intensity, uHTS hits (AID 602372); type: functional; details: read-out: IC50_Mean
Tyrosine-protein phosphatase non-receptor type 5, sequence (P54829 whole entry): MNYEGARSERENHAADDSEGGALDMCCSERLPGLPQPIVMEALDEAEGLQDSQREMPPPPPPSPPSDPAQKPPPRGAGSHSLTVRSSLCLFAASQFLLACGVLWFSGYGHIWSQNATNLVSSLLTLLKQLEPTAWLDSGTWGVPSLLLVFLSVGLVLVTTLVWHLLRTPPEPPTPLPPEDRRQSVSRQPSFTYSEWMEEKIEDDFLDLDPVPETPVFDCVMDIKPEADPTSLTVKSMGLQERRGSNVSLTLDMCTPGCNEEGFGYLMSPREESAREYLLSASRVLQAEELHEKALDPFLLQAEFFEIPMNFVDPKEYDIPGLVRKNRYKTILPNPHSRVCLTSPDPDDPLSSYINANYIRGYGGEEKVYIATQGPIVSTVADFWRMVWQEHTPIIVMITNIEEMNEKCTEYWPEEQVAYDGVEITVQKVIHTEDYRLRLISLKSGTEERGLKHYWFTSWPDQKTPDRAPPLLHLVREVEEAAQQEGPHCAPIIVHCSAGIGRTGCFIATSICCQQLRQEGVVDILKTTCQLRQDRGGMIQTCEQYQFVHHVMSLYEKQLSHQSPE

[6] = target: Dual specificity protein phosphatase 3 (Homo sapiens, UniProt P51452); assay: VHR phosphatase inhibition, dose response, selectivity assay for STEP inhibitor project, biochemical (AID 602374); type: functional; details: read-out: IC50_Mean
Dual specificity protein phosphatase 3, sequence (P51452 whole entry): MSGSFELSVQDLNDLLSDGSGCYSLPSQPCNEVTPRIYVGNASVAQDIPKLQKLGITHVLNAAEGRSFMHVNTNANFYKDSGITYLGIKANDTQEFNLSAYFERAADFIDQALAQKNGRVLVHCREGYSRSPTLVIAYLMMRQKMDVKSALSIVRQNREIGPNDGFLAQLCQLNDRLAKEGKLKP

HEK293 [7] = assay: cells; details: Homo sapiens
HEK293 [8] = assay: cells; details: Homo sapiens; remark: listed apart in the source
Caspase-3 = target: T2, Caspase-3 (Homo sapiens, UniProt P42574); type: functional;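 also: Dose-response selectivity test against caspase-3 for candidate inhibitors of sentrin-specific proteases (SENPs)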
T2 sequence (P42574 whole entry): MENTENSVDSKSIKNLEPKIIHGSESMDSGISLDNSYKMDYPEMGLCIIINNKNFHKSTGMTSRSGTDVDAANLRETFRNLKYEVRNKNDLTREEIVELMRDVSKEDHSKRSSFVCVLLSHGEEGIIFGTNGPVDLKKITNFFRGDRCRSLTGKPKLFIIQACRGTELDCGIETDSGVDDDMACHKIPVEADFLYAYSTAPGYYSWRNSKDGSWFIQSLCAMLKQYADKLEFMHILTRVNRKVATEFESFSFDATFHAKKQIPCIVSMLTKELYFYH

[9] = target: T3, Sentrin-specific protease 7 (Homo sapiens, UniProt Q9BQF6); type: functional;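 also: Luminescence-based dose-response confirmation of ultra-high-throughput screening hits, measuring inhibition of SENP7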
T3 sequence (Q9BQF6 whole entry): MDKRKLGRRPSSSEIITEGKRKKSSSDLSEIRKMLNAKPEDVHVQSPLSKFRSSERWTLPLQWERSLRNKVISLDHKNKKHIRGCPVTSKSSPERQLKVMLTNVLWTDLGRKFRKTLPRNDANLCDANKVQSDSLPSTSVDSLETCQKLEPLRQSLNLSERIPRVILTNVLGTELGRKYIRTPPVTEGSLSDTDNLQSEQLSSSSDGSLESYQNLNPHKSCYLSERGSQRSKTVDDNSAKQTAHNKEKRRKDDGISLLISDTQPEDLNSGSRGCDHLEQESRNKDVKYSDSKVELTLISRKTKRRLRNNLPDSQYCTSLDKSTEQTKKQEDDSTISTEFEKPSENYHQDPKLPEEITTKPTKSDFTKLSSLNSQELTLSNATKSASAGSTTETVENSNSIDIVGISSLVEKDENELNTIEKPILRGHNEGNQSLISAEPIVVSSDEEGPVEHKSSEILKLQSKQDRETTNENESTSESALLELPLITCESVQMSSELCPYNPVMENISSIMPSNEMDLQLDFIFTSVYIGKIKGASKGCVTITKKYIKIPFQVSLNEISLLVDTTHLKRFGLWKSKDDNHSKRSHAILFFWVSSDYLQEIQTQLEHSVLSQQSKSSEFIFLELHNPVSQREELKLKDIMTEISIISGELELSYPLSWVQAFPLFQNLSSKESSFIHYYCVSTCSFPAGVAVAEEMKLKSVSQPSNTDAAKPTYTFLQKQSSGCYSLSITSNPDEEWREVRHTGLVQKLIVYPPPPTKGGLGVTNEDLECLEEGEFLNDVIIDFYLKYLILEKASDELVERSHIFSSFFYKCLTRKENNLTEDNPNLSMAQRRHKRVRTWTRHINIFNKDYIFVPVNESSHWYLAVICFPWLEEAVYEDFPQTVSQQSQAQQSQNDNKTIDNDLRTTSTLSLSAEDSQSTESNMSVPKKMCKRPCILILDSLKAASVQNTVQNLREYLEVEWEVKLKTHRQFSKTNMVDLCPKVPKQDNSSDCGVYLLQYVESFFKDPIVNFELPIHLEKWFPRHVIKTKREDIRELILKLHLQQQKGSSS

[10] = target: T4, Sentrin-specific protease 6 (Homo sapiens, UniProt Q9GZR1); type: functional;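 also: Luminescence-based dose-response confirmatory assay of SENP6 inhibition, following up an ultra-high-throughput screen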
T4 sequence (Q9GZR1 whole entry): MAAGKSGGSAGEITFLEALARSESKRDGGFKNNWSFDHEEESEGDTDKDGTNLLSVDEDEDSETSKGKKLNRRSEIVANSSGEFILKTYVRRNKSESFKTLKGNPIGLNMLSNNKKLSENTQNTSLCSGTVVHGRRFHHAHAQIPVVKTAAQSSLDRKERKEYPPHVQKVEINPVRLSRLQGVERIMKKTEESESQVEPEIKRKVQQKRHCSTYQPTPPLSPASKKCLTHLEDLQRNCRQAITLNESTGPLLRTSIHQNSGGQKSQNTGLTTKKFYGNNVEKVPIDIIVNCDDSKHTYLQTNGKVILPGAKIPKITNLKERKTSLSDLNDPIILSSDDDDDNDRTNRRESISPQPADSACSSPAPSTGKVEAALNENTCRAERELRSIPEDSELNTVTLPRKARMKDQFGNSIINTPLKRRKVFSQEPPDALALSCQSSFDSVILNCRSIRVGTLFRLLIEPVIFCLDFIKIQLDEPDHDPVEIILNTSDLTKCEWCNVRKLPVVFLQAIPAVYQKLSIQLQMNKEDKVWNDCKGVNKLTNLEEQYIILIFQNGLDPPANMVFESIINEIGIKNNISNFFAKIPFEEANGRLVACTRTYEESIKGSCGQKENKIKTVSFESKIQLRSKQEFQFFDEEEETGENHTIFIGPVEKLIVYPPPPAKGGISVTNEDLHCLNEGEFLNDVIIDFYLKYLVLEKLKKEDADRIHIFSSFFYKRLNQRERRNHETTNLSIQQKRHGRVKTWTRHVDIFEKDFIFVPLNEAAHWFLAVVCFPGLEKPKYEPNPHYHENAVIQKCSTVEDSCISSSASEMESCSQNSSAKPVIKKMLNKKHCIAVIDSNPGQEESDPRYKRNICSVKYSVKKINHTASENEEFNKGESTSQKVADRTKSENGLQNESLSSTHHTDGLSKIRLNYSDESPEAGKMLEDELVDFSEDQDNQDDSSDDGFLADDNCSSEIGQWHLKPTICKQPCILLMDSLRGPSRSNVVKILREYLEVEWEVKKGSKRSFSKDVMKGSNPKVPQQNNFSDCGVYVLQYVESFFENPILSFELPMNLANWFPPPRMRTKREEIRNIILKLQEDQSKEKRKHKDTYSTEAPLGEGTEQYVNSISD

[11] = target: T5, Sentrin-specific protease 8 (Homo sapiens, UniProt Q96LD8); type: functional;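 also: luminescence read-out of SENP8 inhibition, dose-response confirmation following an ultra-high-throughput screen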
T5 sequence (Q96LD8 whole entry): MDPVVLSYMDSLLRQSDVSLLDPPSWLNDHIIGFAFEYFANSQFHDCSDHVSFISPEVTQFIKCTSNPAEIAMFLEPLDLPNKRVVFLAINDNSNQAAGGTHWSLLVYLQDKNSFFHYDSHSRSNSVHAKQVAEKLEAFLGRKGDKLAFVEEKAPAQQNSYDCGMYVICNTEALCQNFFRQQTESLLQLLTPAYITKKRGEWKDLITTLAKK

[12] = ARNT/TACC3 interaction disruptors, potency, confirmation, biochemical, AlphaScreen, cherry-picked samples (AID 651703); type: functional, Homo sapiens;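 also: His-tagged ARNT PAS-B domain paired with GST-TACC3 E629A dimer coactivator fragment; potency of inhibitors that break up the complex and lower AlphaScreen signal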

Potassium voltage-gated channel subfamily KQT member 2, sequence (O88943 whole entry): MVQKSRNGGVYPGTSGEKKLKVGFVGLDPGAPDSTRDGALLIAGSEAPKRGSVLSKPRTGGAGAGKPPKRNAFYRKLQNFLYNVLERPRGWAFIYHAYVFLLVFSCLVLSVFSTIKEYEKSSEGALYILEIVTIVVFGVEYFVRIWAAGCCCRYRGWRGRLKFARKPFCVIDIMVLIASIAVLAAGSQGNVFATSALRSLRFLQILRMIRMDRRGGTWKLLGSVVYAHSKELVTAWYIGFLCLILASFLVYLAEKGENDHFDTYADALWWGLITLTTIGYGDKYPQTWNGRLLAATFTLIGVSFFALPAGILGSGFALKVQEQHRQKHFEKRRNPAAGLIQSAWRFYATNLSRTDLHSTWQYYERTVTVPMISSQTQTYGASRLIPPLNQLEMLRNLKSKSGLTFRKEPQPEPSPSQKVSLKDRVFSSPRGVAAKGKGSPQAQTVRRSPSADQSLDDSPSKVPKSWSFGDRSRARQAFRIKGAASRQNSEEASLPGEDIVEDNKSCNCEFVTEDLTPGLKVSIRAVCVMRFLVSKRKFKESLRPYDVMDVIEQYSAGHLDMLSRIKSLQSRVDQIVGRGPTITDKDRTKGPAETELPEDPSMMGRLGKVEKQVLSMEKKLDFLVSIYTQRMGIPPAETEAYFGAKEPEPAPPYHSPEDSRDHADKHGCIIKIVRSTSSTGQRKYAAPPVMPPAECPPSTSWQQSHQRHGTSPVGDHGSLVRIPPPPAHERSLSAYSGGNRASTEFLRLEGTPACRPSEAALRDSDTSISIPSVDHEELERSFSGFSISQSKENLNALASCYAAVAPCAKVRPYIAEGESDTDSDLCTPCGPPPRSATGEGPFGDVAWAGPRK

## CC1Oc2ccccc2N(CC(=O)N(Cc2ccccc2)Cc2ccccn2)C1=O (stereo not given)
[1]
  IC50: 1 µM (active)

## Cn1c(CNc2ccc(O)cc2)nc2ccccc21
[2]
  EC50: > 99 µM (inactive)
[3]
  EC50: > 99 µM (inactive)

## O=C(COc1ccc(/C=N/NC(=O)c2ccncc2)cc1)Nc1ccc([N+](=O)[O-])cc1
[4]
  IC50: 6.08 µM (active)
[5]
  IC50: > 80 µM (inactive)
[6]
  IC50: 21.7 µM (inactive)

## COc1ccc(/N=c2\oc3cc(O)ccc3cc2C(=O)NCC2CCCO2)c(OC)c1 (stereo not given)
[2]
  EC50: > 99 µM (inactive)
[3]
  EC50: > 99 µM (inactive)
HEK293 [7]
  EC50: > 59.6 µM (inactive)
HEK293 [8]
  EC50: > 59.6 µM (inactive)

## O=c1/c(=C\c2ccc3c(c2)OCO3)sc2n1CCCN=2
Caspase-3
  IC50: 17 µM (active)
[9]
  IC50: 12.6 µM (active)
[10]
  IC50: 33.6 µM (active)
[11]
  IC50: 34.1 µM (active)

## O=C(CSc1cccc2cccnc12)N/N=C/c1ccncc1
[12]
  AC50: 110 µM (active)
